Reference: the supplement of paper PMC10307832

Legend:
Experiment in all cases: relative viability (nuclei count vs DMSO), 5 days (fraction); higher = more cells survive
Daporinad + Olaparib = compound: O=C(/C=C/c1cccnc1)NCCCCC1CCN(C(=O)c2ccccc2)CC1 [Daporinad] + O=C(c1cc(Cc2n[nH]c(=O)c3ccccc23)ccc1F)N1CCN(C(=O)C2CC2)CC1 [Olaparib] (partner 8 µM)
How it was run: (§1)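 For relative viability, nuclei counts in treated wells were divided by those in vehicle wells. Lung cancer cell lines had been pin-tool dosed in 1536-well plates the day after seeding and cultured for 5 days, then fixed and stained in one step (final 0.05% Triton X-100, 1% formaldehyde, 1 ug/ml Hoechst) and imaged at 4×. Doses were one drug alone or a fixed anchor-drug dose plus five library-drug doses (not always all listed) in √10 steps, and values are duplicate-plate medians.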

R406 + Dasatinib = compound: COc1cc(Nc2ncc(F)c(Nc3ccc4c(n3)NC(=O)C(C)(C)O4)n2)cc(OC)c1OC [R406] + Cc1nc(Nc2ncc(C(=O)Nc3c(C)cccc3Cl)s2)cc(N2CCN(CCO)CC2)n1 [Dasatinib] (partner 0.075 µM)
How it was run: as §1

Daporinad + Crizotinib = compound: O=C(/C=C/c1cccnc1)NCCCCC1CCN(C(=O)c2ccccc2)CC1 [Daporinad] + C[C@@H](Oc1cc(-c2cnn(C3CCNCC3)c2)cnc1N)c1c(Cl)ccc(F)c1Cl [Crizotinib] (partner 1 µM)
How it was run: as §1

R406 + Lapatinib = compound: COc1cc(Nc2ncc(F)c(Nc3ccc4c(n3)NC(=O)C(C)(C)O4)n2)cc(OC)c1OC [R406] + CS(=O)(=O)CCNCc1ccc(-c2ccc3ncnc(Nc4ccc(OCc5cccc(F)c5)c(Cl)c4)c3c2)o1 [Lapatinib] (partner 2 µM)
How it was run: as §1

Cell Line | relative viability (Daporinad + Olaparib; first compound 0.0005 µM) | relative viability (Daporinad + Olaparib; first compound 0.001581 µM) | relative viability (Daporinad + Olaparib; first compound 0.005 µM) | relative viability (Daporinad + Olaparib; first compound 0.01581 µM) | relative viability (R406 + Dasatinib; first compound 0.08 µM) | relative viability (R406 + Dasatinib; first compound 0.253 µM) | relative viability (R406 + Dasatinib; first compound 0.8 µM) | relative viability (R406 + Dasatinib; first compound 2.53 µM) | relative viability (R406 + Dasatinib; first compound 8 µM) | relative viability (Daporinad + Crizotinib; first compound 0.0005 µM) | relative viability (Daporinad + Crizotinib; first compound 0.001581 µM) | relative viability (Daporinad + Crizotinib; first compound 0.005 µM) | relative viability (Daporinad + Crizotinib; first compound 0.01581 µM) | relative viability (R406 + Lapatinib; first compound 0.08 µM) | relative viability (R406 + Lapatinib; first compound 0.253 µM) | relative viability (R406 + Lapatinib; first compound 0.8 µM) | relative viability (R406 + Lapatinib; first compound 2.53 µM) | relative viability (R406 + Lapatinib; first compound 8 µM)
NCI-H647 | 0.624 | 0.547 | 0.224 | 0.156 | 0.168 | 0.161 | 0.251 | 0.108 | 0.0646 | 1.27 | 0.974 | 1.43 | 1.11 | 0.84 | 1.17 | 1.78 | 0.0824 | 0.157
A-427 | 0.665 | 0.713 | 0.622 | 0.571 | 0.743 | 0.746 | 0.74 | 0.427 | 0.54 | 0.857 | 0.917 | 0.994 | 0.749 | 0.922 | 1.14 | 1.17 | 0.958 | 0.801
EMC-BAC-2 | 0.387 | 0.342 | 0.316 | 0.235 | 0.293 | 0.331 | 0.385 | 0.186 | 0.173 | 0.743 | 0.763 | 0.527 | 0.247 | 0.888 | 0.963 | 0.93 | 0.921 | 0.806
NCI-H460 | 0.399 | 0.375 | 0.184 | 0.143 | 0.477 | 0.584 | 0.586 | 0.323 | 0.257 | 1.02 | 0.91 | 1.17 | 0.897 | 1.07 | 1.51 |  |  | 0.308
LCLC-103H | 0.877 | 0.741 | 0.697 | 0.688 | 0.491 | 0.538 | 0.539 | 0.393 | 0.26 | 1.08 | 1.03 | 1.14 | 1.09 |  |  |  |  | 
HCC-827 | 0.612 | 0.728 | 0.608 | 0.504 | 0.309 | 0.252 | 0.325 | 0.312 | 0.229 | 0.963 | 1.01 | 0.936 | 0.931 | 0.163 | 0.21 | 0.186 | 0.169 | 0.17
NCI-H1355 | 0.693 | 0.737 | 0.6 | 0.479 | 0.754 | 0.79 | 0.777 | 0.491 | 0.32 | 1.08 | 1.1 | 1.22 | 1.1 | 0.887 | 0.974 | 1.08 | 0.901 | 0.764
NCI-H1734 | 0.567 | 0.443 | 0.327 | 0.241 | 0.537 | 0.559 | 0.459 | 0.393 | 0.27 | 0.713 | 0.715 | 0.737 | 0.464 | 1.03 | 1.1 | 1.1 | 0.426 | 0.621
HARA | 0.726 | 0.425 | 0.466 | 0.28 | 0.235 | 0.267 | 0.296 | 0.248 | 0.113 | 1.05 | 1.07 | 1.07 | 0.291 | 0.743 | 0.672 | 0.775 | 0.55 | 0.157
